Results from PubChem BioAssay (NCI).
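The compound was tested at five concentrations on cells cultured in 96-well plates, with a 48-hour exposure period. At the GI50, growth is halved. TGI denotes the concentration required for complete inhibition of growth.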

Assays:
Assay in all cases: NCI-60 cell line screen, 48 h
ACHN renal = system: ACHN renal
PC-3 prostate = system: PC-3 prostate
U251 CNS = system: U251 CNS
HOP-92 NSCLC = system: HOP-92 NSCLC
HCC-2998 colon = system: HCC-2998 colon
HL-60(TB) leukemia = system: HL-60(TB) leukemia
HOP-62 NSCLC = system: HOP-62 NSCLC
NCI-H522 lung = system: NCI-H522 lung
T-47D breast = system: T-47D breast
MCF7 breast = system: MCF7 breast

| SMILES | GI50 (ACHN renal) | TGI (ACHN renal) | GI50 (PC-3 prostate) | TGI (PC-3 prostate) | GI50 (U251 CNS) | TGI (U251 CNS) | GI50 (HOP-92 NSCLC) [µM] | TGI (HOP-92 NSCLC) [µM] | GI50 (HCC-2998 colon) | TGI (HCC-2998 colon) | GI50 (HL-60(TB) leukemia) | TGI (HL-60(TB) leukemia) | GI50 (HOP-62 NSCLC) | TGI (HOP-62 NSCLC) | GI50 (NCI-H522 lung) | TGI (NCI-H522 lung) | GI50 (T-47D breast) | TGI (T-47D breast) | GI50 (MCF7 breast) | TGI (MCF7 breast) |
| --- | --- | --- | --- | --- | --- | --- | --- | --- | --- | --- | --- | --- | --- | --- | --- | --- | --- | --- | --- | --- |
| Cc1cc(I)cc(CNCCN(C)C)c1O | > 79.6 µM | > 100 µM | > 84 µM | > 100 µM | 73.5 µM | > 100 µM | 37.2 | > 100 | 35.1 µM | > 100 µM | 57.8 µM | > 100 µM | > 100 µM | > 100 µM | > 86.3 µM | > 100 µM | 76.3 µM | > 100 µM | > 100 µM | > 100 µM |
| Nc1ccc(/C=C/c2ccc3ncccc3c2)cc1 | > 100 µM | > 100 µM | 7.29 µM | > 100 µM | > 100 µM | > 100 µM | 12.9 | > 100 | > 100 µM | > 100 µM | 1.52 µM | > 100 µM | > 100 µM | > 100 µM | 19.9 µM | > 100 µM | > 100 µM | > 100 µM | > 100 µM | > 100 µM |
| Sc1cccc2cccnc12 | 0.697 µM | 12.8 µM | 0.577 µM | 13.1 µM | 0.598 µM | 13.9 µM | 7.11 | 20.5 | 3.49 µM | 16.2 µM | 1.02 µM | 7.21 µM | 1.11 µM | 12.3 µM | 2.13 µM | 5.66 µM | 3.07 µM | 12.3 µM | 0.484 µM | 11.6 µM |
| O=[N+]([O-])c1ccc(C2=NCCO2)cc1 | > 100 µM | > 100 µM | > 100 µM | > 100 µM | > 100 µM | > 100 µM | > 100 | > 100 | > 100 µM | > 100 µM | > 100 µM | > 100 µM | > 100 µM | > 100 µM | > 100 µM | > 100 µM | > 100 µM | > 100 µM | > 100 µM | > 100 µM |
| Cn1cc(C2=C(c3ccsc3)C(=O)NC2=O)c2ccccc21 | > 25 µM | > 25 µM | > 25 µM | > 25 µM | > 25 µM | > 25 µM | – | – | > 25 µM | > 25 µM | > 25 µM | > 25 µM | > 25 µM | > 25 µM | > 25 µM | > 25 µM | 7.97 µM | > 25 µM | 1.58 µM | > 25 µM |
| C=C(CO)C(=O)OC1CC(=C)C2CC(O)C(C)C2C2OC(=O)C(=C)C12 (centres undefined) | – | 34 µM | – | > 100 µM | – | 64.2 µM | – | 77.6 | – | 40.9 µM | – | 62.5 µM | – | 46.5 µM | – | 45.8 µM | – | > 100 µM | – | 34.3 µM |
| CN1CCN(Cc2ccc(NC(=O)c3cncc(C#Cc4cnc(N)c5ncccc45)c3)cc2C(F)(F)F)CC1 | 0.177 µM | 1.12 µM | 0.584 µM | 16.9 µM | 0.509 µM | 2.18 µM | 0.209 | 1.24 | 0.539 µM | 16.7 µM | 0.0768 µM | 0.602 µM | 0.448 µM | 5.78 µM | 0.396 µM | 8.49 µM | 2.52 µM | 39.1 µM | 0.723 µM | 2.92 µM |
| CN(C)CCNC(=O)c1cc2c3cc(Cl)ccc3[nH]c2c2ncccc12 | 1.62 µM | 6.98 µM | 3.62 µM | 14.8 µM | 2.49 µM | 9.45 µM | 2.36 | 11.2 | – | – | 1.97 µM | 4.02 µM | 5.85 µM | 19.1 µM | 2.26 µM | 7.11 µM | 3.8 µM | 17.8 µM | 1.8 µM | 4.78 µM |
| CC(C)(C)CC(C)(C)c1ccc(OCCO)cc1 | 6.05 µg/mL | > 75 µg/mL | 3.26 µg/mL | 16 µg/mL | 5.34 µg/mL | 19.6 µg/mL | – | – | 7.57 µg/mL | 19.7 µg/mL | 1.81 µg/mL | 31.6 µg/mL | 3.75 µg/mL | 16.3 µg/mL | 1.21 µg/mL | 11.1 µg/mL | 2.1 µg/mL | 18.3 µg/mL | 4.01 µg/mL | 17 µg/mL |
| COc1cccc2c1nc(C(F)F)n2-c1nc(-c2ccc(NS(=O)(=O)CCN(C)C)cc2)nc(N2CCOCC2)n1 | 0.115 µM | 11.2 µM | 0.0923 µM | 12.9 µM | 0.454 µM | 5.09 µM | – | – | 0.0974 µM | 17.4 µM | 0.0397 µM | 10.2 µM | 0.123 µM | 6.56 µM | 0.081 µM | 1.26 µM | 0.0177 µM | 0.0882 µM | – | – |
| C=CC1(C)CCC2C(=CCC3C2(C)CC(O)C(O)C3(C)COC2OC(CO)C(O)C(O)C2O)C1 (centres undefined) | – | > 100 µM | – | > 100 µM | – | > 100 µM | – | > 100 | – | > 100 µM | – | > 100 µM | – | – | – | > 100 µM | – | > 100 µM | – | > 100 µM |
| NS(=O)(=O)c1ccc(N(/C=C/C(=O)C(F)(F)F)CC(=O)c2ccc(F)cc2)cc1 | 21.3 µM | 67.1 µM | 22.7 µM | 81.2 µM | 18.4 µM | 48.9 µM | 21.3 | 60.9 | 17.7 µM | 33.8 µM | – | – | 65.4 µM | > 100 µM | 26.1 µM | 51.5 µM | 43 µM | > 100 µM | > 100 µM | > 100 µM |
| COC(=O)[C@@H](C)C[C@H](Cc1ccccc1)NC(=O)c1nc([C@@H](C[C@H](C(C)C)N(C)C(=O)[C@@H](NC(=O)[C@H]2C[C@H](O)CCN2C)C(C)C)OC(C)=O)sc1C(C)C | 0.101 µM | > 11.1 µM | 0.00391 µM | > 11.1 µM | 0.0075 µM | > 11.1 µM | 0.00491 | 7.05 | 0.00353 µM | 4.52 µM | 0.00143 µM | 0.0074 µM | 0.0315 µM | > 11.1 µM | 0.00186 µM | – | – | – | < 0.00111 µM | > 11.1 µM |
